From a melting point compilation (Tetko et al.; mined from patent text by program, amines drawn as free bases though some values may be those of a salt)

Structure (SMILES) | melting point [°C]
CC1(C)C=Cc2c(c3ccccc3[nH]c2=O)O1 | 174 to 177
CN(CCOc1ccc(CC(SCCN)C(=O)O)cc1)c1nc2ccccc2o1 (stereo unspecified) | 200 to 201
c1ccc(-c2cc(OCC3CO3)no2)cc1 (stereo unspecified) | 98 to 99
N#Cc1cc(Br)c(I)c(Br)c1 | 170 to 175
CN1CC(CCN2CCN(c3cc(Cl)cc(Cl)c3)CC2)OC1=O (stereo unspecified) | 89 to 90
Cc1cccc(C(=O)c2ccc(O)cc2)c1C | 155 to 158
O=C1Nc2ccc(F)cc2C1c1ncnc2nn(C3CCCCC3)cc12 (stereo unspecified) | 294 to 298
O=C(Nc1ccc(C(=O)N2CCCCc3sccc32)cc1)c1ccc(Cl)c(Cl)c1 | 154 to 160
O=C(NOCC(O)CO)c1cc(Br)c(F)c(F)c1Nc1ccccc1F (stereo unspecified) | 144
CCOC(=O)c1c(N2CCN(C(=O)c3ccco3)CC2)c2cc(F)cnc2n(CC(=O)c2ccccc2)c1=O | 134
CC(=O)Nc1c(N(C)C)cnn(C)c1=O | 123 to 124
O=C(O)Cc1cccc(C=C(C(=O)O)c2nc(-c3ccccc3)c(-c3ccccc3)o2)c1 | 178 to 182
COc1ccc(N2C(=O)CCN(C)c3ccc(Cl)cc32)cc1 | 144 to 145
Cc1ccc(-c2c(NS(=O)(=O)c3ccc(C(C)(C)C)cc3)ncnc2OCCOc2ccc(N)cc2)cc1 | 190 to 191
O=C(OCC1CC1)c1ncn2c1[C@@H]1CCCN1C(=O)c1cc(Cl)ccc1-2 | 146 to 148
CCCCCOc1nc(N)nc2c1ncn2C1C=CC(CO)C1 (stereo unspecified) | 139 to 141
O=C(Nc1ccc(Br)cn1)Nc1cccc2c1C1CCCCN1C2=O (stereo unspecified) | 225
CCCc1c(OCCCOc2cccc3c2CCCC3)ccc2c1OC(CCC(=O)OC)(CCC(=O)N1CCCC1)CC2=O (stereo unspecified) | 106 to 107
Fc1cc(F)c(-c2c(F)nc3ncncc3c2F)c(F)c1 | 248
CC(C)c1cc2nc(N)sc2cc1SC1=C(O)C[C@@](CCc2ccccc2)(C(C)C)OC1=O | 197 to 199
CC(=O)Cc1ccc(NC(=O)/C=C/c2cnn(C)c2-c2ccc(F)cc2)cc1 | 186 to 187
Cc1cc2cnc(OCCc3ccc(OC(C)(C)C)cc3)nc2o1 | 75
CC[C@@H]1O[C@](/C=C/C2CC2)(C(F)(F)F)c2cc(Cl)ccc2NC1=O (relative stereo) | 147 to 148
COc1ccc(N2CCOCC2)c2sc(-c3ncc[nH]3)nc12 | 228 to 230

Structure (SMILES) | melting point [°C]
COC(=O)[C@H](Cc1ccc(OCC2CCCN(C(=O)OC(C)(C)C)C2)cc1)NC(=O)[C@@H]1CCCN1S(=O)(=O)c1ccc(C)cc1 (stereo partly specified) | 82 to 84
CCCCCCCCCCCCCCCCCCOc1ccc(C(=O)OC)c(OCCCOc2ccc(OCc3ccccc3)cc2)c1 | 68 to 70
CCOC(=O)c1cccc(Cc2c(C(=O)OCC)n(Cc3cc4c(cc3CC)OCO4)c3ccc(OCOC)cc3c2=O)c1 | 89 to 96
Cc1cc(C)c2c(n1)CCCC2=O | 54 to 57
Cc1cc(S(N)(=O)=O)sc1S(=O)(=O)CCO | 144 to 148
CCCCc1ccc(CCc2cc3c(s2)-n2c(C)nnc2CN=C3c2ccccc2Cl)cc1 | 119 to 121
O=c1[nH]c(N2CCNC(CO)C2)cc2ccccc12 (stereo unspecified) | > 120
CN(C(=O)c1ccc(-c2ccccc2)cc1)C1N(C)C(c2ccc(F)cc2)=NC1(C(F)(F)F)C(F)(F)F (stereo unspecified) | 186 to 187
Cc1nnc(Cl)c(-c2c(F)cccc2Cl)c1-c1ccc(Cl)nc1 | 166 to 167
Cc1cc(Cl)ccc1-n1nc(O)c2c(=O)c3ccc(Cl)cc3[nH]c2c1=O | 336 to 339
O=C(/C=C/c1ccc(O)cc1Cl)CC(=O)/C=C/c1cc(O)ccc1[N+](=O)[O-] | 132 to 136
CCN(CC)c1ccc(C(F)(F)F)cc1NC(=O)c1ccncc1 | 78 to 80
COc1cc2c(c(OC)c1OC)C(=O)C(CCCCCCC1Cc3cc(OC)c(OC)c(OC)c3C1=O)C2 (stereo unspecified) | 129 to 130
COC(=O)CCc1ccc(C(=C2CC(C)(C)CC(C)(C)C2)c2ccc(O)cc2)cc1 | 129 to 130
O=Cc1c(Cl)ccc(F)c1Cl | 63 to 65
COc1ccc2oc(N)c(C#N)c(=O)c2c1 | 320
Cc1noc2cccc(OCC3CO3)c12 (stereo unspecified) | 51 to 53
CC(C)(C)c1cc(C(=O)COc2ccc(C(=O)OCc3ccccc3)c(O)c2)cc(C(C)(C)C)c1O | 123 to 124
Cc1ccc(-c2ccc3c(c2)C=C(C(=O)Nc2ccc(C(=O)C4CCCCN4C(=O)OC(C)(C)C)cc2)CCO3)cc1 (stereo unspecified) | 223 to 224
C#Cc1cccc(Nc2ncnc3cc4c(cc23)OCO4)c1 | > 350
OCCON=Cc1ccc2ccccc2n1 | 128
O=Cc1c(Cl)cc(OCCO)cc1Cl | 83 to 85
O=S1(=O)c2ccc(F)cc2Oc2cc(OCC(F)(F)F)ccc21 | 160 to 161

Other lines, results leading:

melting point [°C] | Structure (SMILES)
208 to 209 | COC(=O)c1ccc2nc3scc(C)c3c(=O)n2c1
141 to 142 | CN1CCC(Cc2ccc(Cl)nc2)C1=C[N+](=O)[O-] (stereo unspecified)
118 to 122 | CC(C)NS(=O)(=O)c1ccc(N)c(C(=O)N2CCN(C)CC2)c1
196 | CSc1cccc(-n2ncc(-c3ccc(S(C)(=O)=O)cc3)c(-c3ccc(F)cc3)c2=O)c1
205 to 208 | Cc1ncc(CN2CCc3cc(-c4ccc(Cl)cc4)ccc3C2)c(N)n1
65.5 to 67.5 | OCCc1cc(-c2ccc(Cl)cc2)no1
167 to 168 | O=C(Nc1ccc(C(F)(F)F)cc1)Nc1nc(OCC(F)(F)F)cc(OCC(F)(F)F)n1
103 to 105 | ClC(=NN=Cc1cccnc1)c1cccnc1
51 to 52 | CCCCCCCCOc1ccc(CP(=O)(OC)OC)c2c(CP(=O)(OC)OC)cccc12
148 | CN1C[C@@H]2c3cc(Cl)ccc3Oc3ccccc3[C@H]2C1=O (relative stereo)
98 to 104 | CCCOc1ncc(S(C)(=O)=O)cc1-c1nc2c(CC)nn(C[C@@H]3CCCN3C(=O)OC(C)(C)C)c2c(=O)[nH]1
108 | COCc1ccc(N)c(O)c1
32 to 34 | O=CN1CCC(Oc2c(F)c(F)c(F)c(F)c2F)CC1
103 to 104 | CC1(C)Oc2c([N+](=O)[O-])ccc(Cl)c2C1Br (stereo unspecified)
148 to 150 | CN1CCN(c2cccc3ccc(-n4cnc5ccccc54)cc23)CC1
223 to 224 | O=P(O)(O)OC(Cn1cncn1)(Cn1cncn1)c1ccc(F)cc1F
233 to 235 | O=C(Nc1ccc(Cl)cc1)c1ccc([N+](=O)[O-])cc1
70.1 to 71 | N#CCN(C1CC1)S(=O)(=O)Cc1cccc(C(F)(F)F)c1
127 to 128 | CCOC(=O)Cc1ccc(-c2nc(COc3ccc(COc4nn(-c5ccccc5)cc4/C=C/c4nc(CC)sc4C)cc3OC)c(C)o2)cc1
135 to 137 | O=C(CN1CCC(Cc2ccc(F)cc2)CC1)Nc1ccc2cn[nH]c2c1
216 to 217 | O=S(=O)(ON=C1c2ccccc2-c2ccccc21)c1ccc(O)cc1
149 to 150 | O=Cc1ccc(O)c(OCc2ccccc2)c1Cl
97 | CCCCNC(=O)NCCCCCCCCCCCCN
195 to 197 | Nc1ncc(C2OC(CO)C(O)C2O)c(Cl)n1 (stereo unspecified)
